# Measurements taken from patent US20240398787A1, “TREATMENT OF MAJOR DEPRESSIVE DISORDER” (AbbVie Inc., priority 2021, published 2024).
# Read-outs that look alike come from different tables or passages of the source.
# Key:
# [1] = system: patients with major depressive disorder (MDD); assay: Clinical Global Impressions-Improvement (CGI-I) score and response, Clinical Study A; format: in vivo, human; details: for CGI-I response rate (score ≤2): LOCF; for CGI-I LS Mean (change from baseline to week 6) / LSMD vs placebo, CGI-I: MMRM
# Description: (§1) A global, multicenter, randomized, double-blind (DB), placebo-controlled, parallel-group, fixed-dose study compared cariprazine 1.5 mg/day and cariprazine 3 mg/day with placebo as an adjunctive treatment to ongoing ADT in outpatients with a diagnosis of MDD (via the Diagnostic and Statistical Manual of Mental Disorders, Fifth Edition [DSM-5]) having an inadequate response, as measured by the modified Antidepressant Treatment Response Questionnaire (ATRQ), to 1 to 3 antidepressants administered during the current episode at an adequate dose and adequate duration. Adequate dose was defined as a dose above the minimum labeled dose (per package insert). Adequate duration was defined as continuous ADT treatment for at least 6 weeks, with a minimum of 3 of 6 weeks above the minimal dose.
# (§2) The study consisted of up to 14 days screening (with up to an additional 7 days of needed) and washout of prohibited medications followed by 6 weeks of double-blind (DB) treatment followed by a 4-week safety follow-up. At the end of the screening period, patients meeting the entry criteria for the study were randomized (1:1:1) to 1 of 3 double-blind treatment groups. Study treatment groups were: cariprazine 1.5 mg/day+antidepressant therapy and cariprazine 3 mg/day+antidepressant therapy. The control group received matching placebo+antidepressant therapy.
# (§3) Dosage/Dose Regimen: Investigational product (cariprazine or placebo) in the form of capsules packaged in blister packs will be provided. No investigational product was administered during the screening/washout period; patients continued the same antidepressant and dose they were on at screening. Patients were taking more than one antidepressant at screening, regardless of the indication, discontinued all other antidepressants prior to baseline (Visit 2). During the double-blind treatment period (6 weeks), patients were administered 1 capsule orally per day in addition to their ongoing ADT. Patients in the 1.5 mg/day+ADT arm were administered 1.5 mg+ADT starting at Visit 2 (Week 0). Patients in the 3 mg/day+ADT arm were administered 1.5 mg+ADT starting at Visit 2 (Week 0) for 2 weeks and then titrate to 3 mg/day+ADT starting at Visit 4 (Week 2). Patients were supplied with identically appearing capsules of either cariprazine 1.5 mg, cariprazine 3 mg, or placebo.
# (§4) A randomized, double-blind, placebo-controlled, multicenter trial with 759 participants was conducted in United States, Bulgaria, Estonia, Germany, Hungary, Ukraine, and the United Kingdom. Following a screening period of up to 14 days (with up to an additional 7 days if needed), which included a washout of prohibited psychotropic medications except for ongoing ADT, patients with a partial response to their antidepressant monotherapy were randomized into three treatment groups (1:1:1). One group received cariprazine 1.5 mg/d+ADT, one received cariprazine 3.0 mg/d+ADT, and one group received placebo+ADT. All participants randomized to cariprazine began on 1.5 mg/d; cariprazine 1.5 mg/d patients remained at that dosage, while cariprazine 3.0 mg/d patients received 1.5 mg/d for 2 weeks and increased to 3.0 mg/d on day 15.
# The primary and secondary efficacy parameters were change from baseline to week 6 in Montgomery-Åsberg Depression Rating Scale (MADRS) total score and Clinical Global Impressions-Severity (CGI-S) score, respectively (screening, baseline, and weeks 1, 2, 4, and 6). Additional efficacy parameters (screening, baseline, and ≥1 double-blind visit) included: MADRS response (≥50% MADRS total score reduction) and remission (MADRS total score ≤10); change from baseline in HAMD-17 total score and Hamilton Anxiety Rating Scale (HAM-A) total score (32); and Clinical Global Impressions-Improvement (CGI-I) score and response (CGI-I score ≤2). […]
# [2] = system: patients with major depressive disorder (MDD); assay: Adverse events and discontinuations during double-blind treatment period, Clinical Study A; format: in vivo, human; details: for TEAE: Akathisia / TEAE: Headache / TEAE: Insomnia / TEAE: Nausea / TEAE: Somnolence: N = 252; for Deaths: safety population; for Treatment-emergent adverse events (TEAEs): safety population N = 252
# Description: as §1, §2, §3
# as §4, with “Following” for “A randomized, double-blind, placebo-controlled, multicenter trial with 759 participants was conducted in United States, Bulgaria, Estonia, Germany, Hungary, Ukraine, and the United Kingdom. Following”
# Table 15 summarizes the most frequent TEAEs occurring in ≥5% in any treatment group, and Table 16 summarizes changes in weight. An AE was considered a treatment-emergent adverse event (TEAE) if the AE began or worsened (increased in severity or became serious) on or after the first dose of double-blinded investigational product.
# [3] = system: MDD patients who had inadequate response to ongoing antidepressant treatment; details: adjunctive, Durgam et al. 2016, cited from earlier work
# [4] = 1.5 mg/day + ADT, double-blind period
# [5] = 1.5 mg/day + ADT, randomized population N = 252
# [6] = 3.0 mg/day + ADT, double-blind period
# [7] = 3 mg/day + ADT, randomized population N = 253
smiles,measurement,setting,value
"CN(C)C(=O)N[C@H]1CC[C@H](CCN2CCN(c3cccc(Cl)c3Cl)CC2)CC1 [Cariprazine, trans-N-{4-[2-[4-(2,3-dichlorophenyl)piperazin-1-yl]ethyl]cyclohexyl}-N′,N′-dimethylurea]",CGI-I response rate (score ≤2),"[1]; 1.5 mg/d + ADT, week 6",51.2%
same,CGI-I LS Mean (change from baseline to week 6),"[1]; 1.5 mg/d + ADT, week 6",2.6
same,"LSMD vs placebo, CGI-I","[1]; 1.5 mg/d + ADT, week 6",−0.3
same,CGI-I responders (score ≤2),"[1]; 1.5 mg/day + ADT, week 1",29 (11.6) n (%)
same,"CGI-I response, odds ratio vs placebo (95% CI)","[1]; 1.5 mg/day + ADT, week 1","2.0 (1.0, 3.8)"
same,CGI-I responders (score ≤2),"[1]; 1.5 mg/day + ADT, week 2",67 (26.8) n (%)
same,"CGI-I response, odds ratio vs placebo (95% CI)","[1]; 1.5 mg/day + ADT, week 2","1.4 (0.9, 2.1)"
same,CGI-I responders (score ≤2),"[1]; 1.5 mg/day + ADT, week 4",115 (46.0) n (%)
same,"CGI-I response, odds ratio vs placebo (95% CI)","[1]; 1.5 mg/day + ADT, week 4","1.6 (1.1, 2.3)"
same,CGI-I responders (score ≤2),"[1]; 1.5 mg/day + ADT, week 6",128 (51.2) n (%)
same,CGI-I response rate (score ≤2),"[1]; 3.0 mg/d + ADT, week 6",50.4%
same,CGI-I LS Mean (change from baseline to week 6),"[1]; 3 mg/d + ADT, week 6",2.6
same,"LSMD vs placebo, CGI-I","[1]; 3 mg/d + ADT, week 6",−0.3
same,CGI-I responders (score ≤2),"[1]; 3 mg/day + ADT, week 1",20 (7.9) n (%)
same,"CGI-I response, odds ratio vs placebo (95% CI)","[1]; 3 mg/day + ADT, week 1","1.3 (0.6, 2.6)"
same,CGI-I responders (score ≤2),"[1]; 3 mg/day + ADT, week 2",62 (24.6) n (%)
same,"CGI-I response, odds ratio vs placebo (95% CI)","[1]; 3 mg/day + ADT, week 2","1.2 (0.8, 1.9)"
same,CGI-I responders (score ≤2),"[1]; 3 mg/day + ADT, week 4",102 (40.5) n (%)
same,"CGI-I response, odds ratio vs placebo (95% CI)","[1]; 3 mg/day + ADT, week 4","1.3 (0.9, 1.8)"
same,CGI-I responders (score ≤2),"[1]; 3 mg/day + ADT, week 6",127 (50.4) n (%)
same,TEAE: Akathisia,[2]; 1.5 mg/day + ADT,13 (5.2) n (%)
same,TEAE: Headache,[2]; 1.5 mg/day + ADT,22 (8.7) n (%)
same,TEAE: Insomnia,[2]; 1.5 mg/day + ADT,18 (7.1) n (%)
same,TEAE: Nausea,[2]; 1.5 mg/day + ADT,20 (7.9) n (%)
same,TEAE: Somnolence,[2]; 1.5 mg/day + ADT,13 (5.2) n (%)
same,Any Extrapyramidal Symptoms (EPS) TEAEs,[2]; [4],25 (9.9) n (%)
same,Treatment-emergent Serious AE (TESAE),[2]; [4],1 (0.4) n (%)
same,Deaths,[2]; [4],0 n (%)
same,Treatment-emergent adverse events (TEAEs),[2]; [4],125 (49.6) n (%)
same,Premature discontinuation due to Death,[2]; [5],0 n (%)
same,Premature discontinuation due to Lack of Efficacy,[2]; [5],2 (0.8) n (%)
same,TEAE: Akathisia,[2]; 3.0 mg/day + ADT,20 (7.9) n (%)
same,TEAE: Headache,[2]; 3.0 mg/day + ADT,11 (4.4) n (%)
same,TEAE: Insomnia,[2]; 3.0 mg/day + ADT,16 (6.3) n (%)
same,TEAE: Nausea,[2]; 3.0 mg/day + ADT,16 (6.3) n (%)
same,TEAE: Somnolence,[2]; 3.0 mg/day + ADT,11 (4.4) n (%)
same,Any Extrapyramidal Symptoms (EPS) TEAEs,[2]; [6],38 (15.1) n (%)
same,TEAE leading to discontinuation from study,[2]; [6],18 (7.1) n (%)
same,Treatment-emergent Serious AE (TESAE),[2]; [6],1 (0.4) n (%)
same,Deaths,[2]; [6],0 n (%)
same,Treatment-emergent adverse events (TEAEs),[2]; [6],124 (49.2) n (%)
same,Premature discontinuation due to Adverse Event,[2]; [7],18 (7.1) n (%)
same,Premature discontinuation due to Death,[2]; [7],0 n (%)
same,Premature discontinuation due to Lack of Efficacy,[2]; [7],0 n (%)
same,Most common adverse events occurring at ≥5% in the cariprazine groups,[2]; six-week study period,"akathisia, nausea, insomnia, headache and somnolence"
same,Safety results (overall),[2]; six-week study period,no new safety signals identified
same,"LSMD vs placebo, MADRS total score",[3]; 1-2 mg per day variable dosing,−0.9
same,"LSMD vs placebo, MADRS total score",[3]; 2-4.5 mg per day variable dosing,−2.2
